pEC50, pIC50: −log10 of the molar value. Where two headings read alike, the source gives them in different places.
How the values were obtained:
[1] = system: cryo-preserved hepatocytes; experiment: Hepatocyte stability assay, mouse; assay type: in vitro ADME
From the text: (§1) Defrosted cryo-preserved hepatocytes (viability>70%) were used to determine the metabolic stability of a compound via calculation of intrinsic clearance (CIint; a measure of the removal of a compound from the liver in the absence of blood flow and cell binding). Clearance data are particularly important for in vitro work as they can be used in combination with in vivo data to predict the half-life and oral bioavailability of a drug.
(§2) The metabolic stability in hepatocytes assay involved a time-dependent reaction using both positive and negative controls. The cells must be pre-incubated at 37° C. then spiked with test compound (and positive control); samples taken at pre-determined time intervals were analysed to monitor the change in concentration of the initial drug compound over 60 minutes. A buffer incubation reaction (with no hepatocytes present) acted as a negative control and two cocktail solutions, containing compounds with known high and low clearance values (verapamil/7-hydroxycoumarin and propranolol/diltiazem), acted as positive controls. • 1. The assay was run with a cell concentration of 0.5×10^6 cells/mL in Leibovitz buffer. • 2. All compounds and controls were run in duplicate. • 3. Compound concentration was 10 μM. • 4. All compounds and controls were incubated with both cells and buffer to show turnover is due to hepatic metabolism. • 5. All wells on the incubation plate had 326.7 μL of either cells or buffer added. • 6. Prior to assay, cell and buffer-only incubation plates were preincubated for 10 mins at 37° C. • 7. The assay was initiated by adding compounds, 3.3 μL of 1 mM in 10% DMSO-90% Buffer; final DMSO concentration is 0.1%. • 8. Samples were taken at regular timepoints (0, 5, 10, 20, 40, 60 min) until 60 mins. • 9. Sample volume was 40 μL and added to 160 μL of crash solvent (acetonitrile with internal standard) and stored on ice. • 10. At the end of the assay, the crash plates were centrifuged at 3500 rpm for 20 mins at 4° C. • 11. 80 μL of clear supernatant was removed and mixed with 80 μL of deionised water before being analysed by LC-MS/MS.
(§3) Raw LC-MS/MS data were exported to, and analysed in, Microsoft Excel for determination of intrinsic clearance. The percentage remaining of a compound was monitored using the peak area of the initial concentration as 100%. Intrinsic clearance and half-life values were calculated using a graph of the natural log of percentage remaining versus the time of reaction in minutes.
(§4) 4-Octyl itaconate was included as a comparator compound.

[2] = system: cryo-preserved hepatocytes; experiment: Hepatocyte stability assay, human; assay type: in vitro ADME
From the text: as §1, §2, §3, §4

IL-1β = experiment: THP-1 AlphaLISA IL-1β cytokine assay (differentiated THP-1 cells); assay type: cell-based
Description: (§5) Measuring Inhibitory Effects on IL-1V Cytokine and IL-6 Output from THP-1s
(§6) The cytokine inhibition profiles of compounds of formula (I) were determined in a differentiated THP-1 cell assay. All assays were performed in RPMI-1640 growth medium (Gibco), supplemented with 10% fetal bovine serum (FBS; Gibco), 1% penicillin-streptomycin and 1% sodium pyruvate unless specified otherwise. The IL-1β and IL-6 cytokine inhibition assays were run in a background of differentiated THP-1 cells as described below. All reagents described were from Sigma-Aldrich unless specified otherwise. Compounds were prepared as 10 mM DMSO stocks.
(§7) THP-1 cells were expanded as a suspension up to 80% confluence in appropriate growth medium. Cells were harvested, suspended, and treated with an appropriate concentration of phorbol 12-myristate 13-acetate (PMA) over a 72 hr period (37° C./5% CO2).
(§8) Following 72 hrs of THP-1 cell incubation, cellular medium was removed and replaced with fresh growth media containing 1% of FBS. Working concentrations of compounds were prepared separately in 10% FBS treated growth medium and pre-incubated with the cells for 30 minutes (37° C./5% CO2). Following the 30 minute compound pre-incubation, THP-1s were treated with an appropriate concentration of LPS and the THP-1s were subsequently incubated for a 24 hr period (37° C./5% CO2). An appropriate final concentration of Nigericin was then dispensed into the THP-1 plates and incubated for 1 hour (37° C./5% CO2) before THP-1 supernatants were harvested and collected in separate polypropylene 96-well holding plates.
(§9) Reagents from each of the IL-1β and IL-6 commercial kits (Perkin Elmer) were prepared and run according to the manufacturer's instructions. Subsequently, fluorescence signal detection in a microplate reader was measured (EnVision® Multilabel Reader, Perkin Elmer).
(§10) Percentage inhibition was calculated per cytokine by normalising the sample data to the high and low controls used within each plate (+/−LPS respectively).
(§11) Dimethyl itaconate and 4-octyl itaconate were included as comparator compounds.

[3] = system: NRF2 (nuclear factor erythroid 2-related factor 2); experiment: NRF2 +/-GSH activation assay (DiscoverX PathHunter NRF2 translocation kit, U2OS cells); assay type: cell-based; settings: for Emax / pEC50: Homo sapiens; for Emax: U2OS; for pEC50: U2OS PathHunter cells, 6 hours
IL-6 = experiment: THP-1 AlphaLISA IL-6 cytokine assay (differentiated THP-1 cells); assay type: cell-based
Description: as §5, §6, §7, §8, §9, §10, §11

[4] = Hepatocyte stability assay, mouse; assay type: in vitro ADME; settings: mouse, hepatocytes, T½
From the text: as §1, §2, §3, §4

[5] = Hepatocyte stability assay, human; assay type: in vitro ADME; settings: human, hepatocytes, T½
From the text: as §1, §2, §3, §4

[6] = Mouse hepatocytes, 10 μM compound, 60 min
[7] = Human hepatocytes, 10 μM compound, 60 min
[8] = differentiated THP-1 cells, LPS 24 hr then Nigericin 1 hour, read-out: IL-1β (IC50)
[9] = differentiated THP-1 cells, LPS 24 hr then Nigericin 1 hour, read-out: IL-6 (IC50)
[10] = Homo sapiens, THP-1, differentiated THP-1 cells, LPS 24 hr then Nigericin 1 hour, read-out: IL-1β (IC50)
[11] = +GSH, normalised to dimethyl fumarate high control, read-out: NRF2 activation Emax, +GSH
[12] = −GSH, normalised to dimethyl fumarate high control, read-out: NRF2 activation Emax, −GSH
[13] = +GSH, read-out: NRF2 activation EC50, +GSH
[14] = −GSH, read-out: NRF2 activation EC50, −GSH
[15] = Homo sapiens, THP-1, differentiated THP-1 cells, LPS 24 hr then Nigericin 1 hour, read-out: IL-6 (IC50)

| SMILES | half-life at 10 μM [4] [h] | half-life at 10 μM [5] [h] | Clint ([2]; human, hepatocytes) [μL min^−1 10^−6 cells] | Clint ([1]; mouse, hepatocytes) [μL min^−1 10^−6 cells] | pIC50 (IL-1β; [10]) | pIC50 (IL-1β; [8]) | T½ ([1]; mouse, hepatocytes, 10 μM) [h] | further results |
| --- | --- | --- | --- | --- | --- | --- | --- | --- |
| C=C(CC(=O)OCCCCCCCC)C(=O)O [4-octyl itaconate, 4-Octyl itaconate, reference compound] |  |  |  |  |  | 4.42 |  | Clint [1, 6]: 351 μL min^−1 10^−6 cells; T½ [1, 6]: 0.067 h; Clint [2, 7]: 401 μL min^−1 10^−6 cells; T½ [2, 7]: 0.067 h; NRF2 activation Emax, +GSH ([3]; +GSH, normalised to dimethyl fumarate high control): 148%; NRF2 activation Emax, −GSH ([3]; −GSH, normalised to dimethyl fumarate high control): 165%; pIC50 (IL-6; [9]): 4.69 |
| C=C(C(=O)O)C(C)C(=O)NC(C)(C)c1ccc(C(F)(F)F)cc1 (single isomer, unassigned; isomer 1) [Example 52, 3-methyl-2-methylene-4-oxo-4-((2-(4-(trifluoromethyl)phenyl)propan-2-yl)amino)butanoic acid ISOMER 1] | 7.18 | > 7.67 | <3 |  |  | 4.73 | >7.67 |  |
| C=C(CC(=O)NC1CCCCCCC1)C(=O)OC1CCN(S(C)(=O)=O)CC1 [Example 2, 1-(methylsulfonyl)piperidin-4-yl 4-(cyclooctylamino)-2-methylene-4-oxobutanoate] | 0.983 | 2 | 14 | 119 | 5.07 |  |  | half-life at 10 μM ([4]; data from repeated experiments): 0.15 h; Clint, data from repeated experiments ([1]; mouse, hepatocytes): 156ª μL min^−1 10^−6 cells; half-life at 10 μM ([5]; data from repeated experiments): 1.28 h; Clint, data from repeated experiments ([2]; human, hepatocytes): 21ª μL min^−1 10^−6 cells; Emax [3, 11]: 90%; Emax [3, 12]: 127%; pEC50 [3, 13]: 4.38; pEC50 [3, 14]: 4.60 |
| C=C(CC(=O)N[C@@H](C)c1ccc(C(F)(F)F)cn1)C(=O)OC1CCN(C)CC1 [Example 32, 1-methylpiperidin-4-yl (S)-2-methylene-4-oxo-4-((1-(5-(trifluoromethyl)pyridin-2-yl)ethyl)amino)butanoate] | 0.333 | 2.05 | 12 | 87 | 5.05 |  |  | Emax [3, 11]: 12%; Emax [3, 12]: 58%; pEC50 [3, 13]: < 4.00; pEC50 [3, 14]: 4.34 |
| C=C(C(=O)O)C(C)C(=O)NC(C)(C)c1ccc(C(F)(F)F)cc1 (stereo not shown) [Example 51, 3-methyl-2-methylene-4-oxo-4-((2-(4-(trifluoromethyl)phenyl)propan-2-yl)amino)butanoic acid] |  | > 7.67 | <3 |  |  |  |  | pIC50 (IL-1β; Homo sapiens, THP-1, read-out: IL-1β (IC50)): 4.99; pIC50 (IL-6; Homo sapiens, THP-1, read-out: IL-6 (IC50)): < 4.00 |
| C=C(C(=O)O)C(C)C(=O)NC(C)(C)c1ccc(C(F)(F)F)cc1 (single isomer, unassigned) [Example 53, 3-methyl-2-methylene-4-oxo-4-((2-(4-(trifluoromethyl)phenyl)propan-2-yl)amino)butanoic acid] |  |  | <3 | 5 |  | 5.03 | 4.78 | T½ ([2]; human, hepatocytes, 10 μM): >7.67 h; pIC50 (IL-6; [15]): < 4.00 |
| C=C(CC(=O)N[C@@H](C)c1ccc(C(F)(F)F)cn1)C(=O)OC1CN(C(C)=O)C1 [Example 36, 1-acetylazetidin-3-yl (S)-2-methylene-4-oxo-4-((1-(5-(trifluoromethyl)pyridin-2-yl)ethyl)amino)butanoate] | 0.367 |  |  | 61 | 5.41 |  |  | Emax [3, 11]: 25%; Emax [3, 12]: 65%; pEC50 [3, 13]: < 4.00; pEC50 [3, 14]: 4.80; pIC50 (IL-6; [15]): < 4.00 |

Further lines, with some results ahead:

| half-life at 10 μM [4] [h] | half-life at 10 μM [5] [h] | Clint ([2]; human, hepatocytes) [μL min^−1 10^−6 cells] | Clint ([1]; mouse, hepatocytes) [μL min^−1 10^−6 cells] | pIC50 (IL-1β; [10]) | SMILES | pIC50 (IL-1β; [8]) | T½ ([1]; mouse, hepatocytes, 10 μM) [h] | further results |
| --- | --- | --- | --- | --- | --- | --- | --- | --- |
| 0.667 | 3.35 | 7 | 37 | 5.60 | C[C@H](NC(=O)C/C(=C\CCc1ccccc1)C(=O)O)c1ccc(C(F)(F)F)cc1 [Example 46, (S,E)-2-(2-oxo-2-((1-(4-(trifluoromethyl)phenyl)ethyl)amino)ethyl)-5-phenylpent-2-enoic acid] |  |  |  |
| 0.183 | 1.17 | 21 | 153 | 5.39 | C=C(CC(=O)N[C@@H](C)c1ccc(C(F)(F)F)cc1)C(=O)OCCNS(C)(=O)=O [Example 25, 2-(methylsulfonamido)ethyl (S)-2-methylene-4-oxo-4-((1-(4-(trifluoromethyl)phenyl)ethyl)amino)butanoate] |  |  |  |
| 2.72 | > 7.67 | <3 | 9 | 5.68 | CC/C=C(\CC(=O)N[C@@H](C)c1ccc(C(F)(F)F)cc1)C(=O)O [Example 43, (S,E)-2-(2-oxo-2-((1-(4-(trifluoromethyl)phenyl)ethyl)amino)ethyl)pent-2-enoic acid] |  |  |  |
| 3.98 | > 7.67 | <3 | 6 | 5.38 | CC(C)/C=C(\CC(=O)N[C@@H](C)c1ccc(C(F)(F)F)cc1)C(=O)O [Example 44, (S,E)-4-methyl-2-(2-oxo-2-((1-(4-(trifluoromethyl)phenyl)ethyl)amino)ethyl)pent-2-enoic acid] |  |  |  |
|  |  | <3 | 3 |  | C=C(C(=O)O)C(C)C(=O)N[C@@H](C)c1ccc(C(F)(F)F)cc1 (single isomer, unassigned; isomer 2) [Example 55] | 4.72 | 7.62 | T½ ([2]; human, hepatocytes, 10 μM): >7.67 h; pIC50 (IL-6; [9]): < 4.50 |
|  |  | <3 | 4 |  | C=C(CC(=O)NC(c1ccc(C(F)(F)F)cc1)C1CC1)C(=O)O (stereo not shown) [Example 23, 4-((cyclopropyl(4-(trifluoromethyl)phenyl)methyl)amino)-2-methylene-4-oxobutanoic acid] | 4.87 | 5.92 | T½ ([2]; human, hepatocytes, 10 μM): >7.67 h; pIC50 (IL-6; [9]): < 4.00 |
